Data taken from a melting point compilation (Tetko et al.; mined from patent text by program, amines drawn as free bases though some values may be those of a salt).

Row | melting point [°C] | Compound
1 | 106 to 110 | O=C(O)[C@H]1CN(c2ccc(C3=CCSCC3)c(F)c2)C(=O)O1
2 | 155 to 165 | Cc1ccc(S(=O)(=O)ON=C2CCCc3occ(C(=O)O)c32)cc1
3 | 91 to 93 | Cc1cccc(C2CCN(C(=O)CCC(=O)c3ccc4c(c3)CCNCC4)CC2)c1
4 | 165 to 166 | O=C1C=CC(O)(c2cc3ccccc3n2S(=O)(=O)c2ccc(F)cc2)C=C1
5 | 138 to 139 | OC1CSC(Oc2cccc(-c3ccccn3)c2)C(O)C1O (stereo not given)
6 | 256 | O=C1Cc2cc(NC(=O)C(=O)O)ccc2N1
7 | 209 to 212 | CCCNc1nc(N)nc(-c2ccccc2)c1-c1ccc(=O)n(C(C)C)n1
8 | 129 to 130 | CC1(C)OC(c2ccc(S(N)(=O)=O)cc2)=C(c2cccc(C(F)(F)F)c2)C1=O
9 | 178 to 179 | COc1cc(Br)c2nc(-c3ccc(OC)c(F)c3)cc(Br)c2c1
10 | 73 to 78 | CCCS(=O)(=O)c1c(Cl)cnc(Cl)c1Cl
11 | 196 to 198 | c1ccc2nc(CN(CCN(Cc3ccc4ccccc4n3)Cc3ccc4ccccc4n3)Cc3ccc4ccccc4n3)ccc2c1
12 | 190 | CCOC(=O)C1C2C(=O)N(Cc3ccccc3)C(=O)C12 (stereo not given)
13 | 189 to 192 | CCCC1C(=O)N(S(=O)(=O)c2ccc3ccccc3c2)C2CCN(S(=O)(=O)CCCN3CCOCC3)C12 (stereo not given)
14 | 104 to 105 | Cc1cccc(OCC(F)(F)F)c1N(Cc1cc[nH]n1)C(=O)CCl
15 | 285 to 286 | NS(=O)(=O)c1cc2cc(-c3nc(C(F)(F)F)c[nH]3)ccc2s1
16 | 118 to 121 | CCc1nn2ccccc2c1[N+](=O)[O-]
17 | 48 to 49 | C=CCOC(=O)C1CC(=O)N(C2CC(C)(C)N(C)C(C)(C)C2)C1 (stereo not given)
18 | 198 to 199 | Clc1ccc2[nH]nc(I)c2c1
19 | > 250 | CCCc1c2occ(C(=O)O)cc-2c(=O)c2cc(C(=O)O)sc12
20 | 103 to 106 | CCN(CC)C(=O)Oc1cc(C(C)C)ccc1C1(O)C(=O)c2ccccc2C1=O
21 | 148 | c1ccc(-c2cc(-c3c[nH]nc3-c3ccccn3)ccn2)cc1
22 | 125 to 126 | OCc1cccc2cc(-c3ccccc3)sc12
23 | 186 to 188 | Cc1oc2c(NC(=O)c3c(Cl)ccc(Cl)c3C(=O)O)cccc2c1C

Row | melting point [°C] | Compound
24 | 194 to 195 | CCCC[C@H](NS(=O)(=O)c1ccc(Br)cc1)C(=S)Nc1ccc(CC(=O)O)cc1
25 | 208 | O=C(O)C1Oc2ccc(Cl)cc2C(C2CCCCC2)(C2CCCCC2)O1 (stereo not given)
26 | 285 to 287 | CN(Cc1cccc2c1CN(C1CCC(=O)NC1=O)C2=O)C(=O)Nc1cc(Cl)cc(Cl)c1 (stereo not given)
27 | 285 | COc1ccc(NC(=O)c2ccc(OC)c3oc4ccc(NC(C)=O)cc4c23)cc1
28 | 104 to 108 | CN(C)c1ccc(C(=O)C(F)(F)c2cccc(Cl)c2)cc1
29 | 115 | CCCCC(=O)Nc1cccc(NC(=O)C=C(C)OC)c1
30 | 240 to 245 | CCc1nc(=O)c2cc3ccccc3nc2[nH]1
31 | 152 to 153 | NC(=O)c1c(F)ccc(OCC(=O)O)c1F
32 | 234 to 235 | O=C(Nc1ccncn1)c1ccccc1SSc1ccccc1C(=O)Nc1ccncn1
33 | 162 to 165 | CC(C)OC(=O)N1CCC(c2nc3cc(-c4ccc(C(=O)NC5CC5)c(F)c4)ccc3o2)CC1
34 | 158 to 161 | CN(C)C1CCC(Nc2nc3cc(Cl)c(Cl)cc3nc2-c2cccnc2)CC1 (stereo not given)
35 | 137 to 138 | COc1ccc(C(=O)c2ccc(OCc3nc(-c4ccccc4)oc3C)nc2)c(O)c1
36 | 196 | CC1(C)OC(c2ccc(S(C)(=O)=O)cc2)=C(Br)C1=O
37 | 69 to 71 | CC(=O)c1nc2ccc(OCC(F)(F)C(F)(F)C(F)(F)C(F)F)cc2cc1O
38 | 125 | O=C1CNc2ncc(-c3ccc(C(=O)N4CCC[C@H]4CN4CCCC4)cc3)cc2N1Cc1cc(F)ccc1F
39 | 147 to 148 | CC(C)(C)OC(=O)NC(CC#N)COc1noc2ccc(Cl)cc12 (stereo not given)
40 | 64 | C=CCOc1cc([N+](=O)[O-])ccc1OCC1CO1 (stereo not given)
41 | 206 to 209 | O=C(O)COc1cc(F)c(F)cc1C(=S)NCc1ccc(Br)cc1F
42 | 158 to 160 | CCOc1nsc(S(C)(=O)=O)c1S(C)(=O)=O
43 | 159 to 165 | CO[C@@H]1CC[C@@H](NC(N)=O)c2ccccc21 (relative stereo)
44 | 100 to 101 | C=CCOC(=O)c1ccc(COC(=O)c2cc(C(C)(C)C)c(O)c(C(C)(C)C)c2)cc1
45 | 236 to 237 | O=C1Nc2ccc(-c3ccc(Cl)cc3)cc2C1=NO
46 | 150 to 152 | CC(=O)NC[C@H]1CN(c2ccc(N3CCC(=CC#N)C(C)(C)C3)c(F)c2)C(=O)O1

Row | melting point [°C] | Compound
47 | 83 to 84 | CCN(CC)CCOCCc1ccc2c(c1)OCO2
48 | 187 to 188 | CC(C)(C)c1cc(C(=O)NN)cc(C(C)(C)C)c1O
49 | 190 to 192 | c1ccc(Cn2ccc3nnc4ccccc4c32)cc1
50 | 249 to 251 | CC(C)=CCn1c(=O)c(C2=Nc3ccccc3S(=O)(=O)N2)c(O)c2ccccc21
51 | 167 | Cn1c(N2CCOC(c3nc(-c4ccccc4)no3)C2)nc(-c2ccncn2)cc1=O (stereo not given)
52 | 125 to 127 | CC(Cn1c2ccccc2c2ccccc21)OS(C)(=O)=O (stereo not given)
53 | 119 | Ic1nnnn1C1CCCC1
54 | > 300 | O=c1[nH]c2cc(F)c(F)cc2n2ccnc12
55 | 68 to 69 | OC(=S)CCc1ccc(F)cc1
56 | 148 to 149 | O=C(O)Cc1ccc(OCCC(c2ccccc2)(c2ccccc2)c2ccccc2)cc1
57 | 203 | CCCCCCCNC(=O)Nc1c(C(=O)NC2CCN(C(c3ccccc3)c3ccccc3)CC2)cccc1N(C)C
58 | 168 to 170 | N#Cc1c(NCc2ccc(N)cc2)n[nH]c1N
59 | 146 to 148 | O=C(CBr)Nc1ccc(Cl)cc1C(=O)c1c(F)cccc1F
60 | 55 to 56 | CSc1nc(=O)n(-c2ccc(Cl)c(C(=O)OC(C)C)c2)c(=O)n1C#N
61 | 140 | Cc1cc(C(O)CN(C)Cc2cc3c(=O)c(C(=O)NCc4ccc(Cl)cc4)cn(C)c3o2)oc1C (stereo not given)
62 | 93 to 96 | COc1ccc(S(=O)(=O)C(C=CC(C)C)(CC=C(C)C)C(=O)NO)cc1 (stereo not given)
63 | 127 to 132 | CCCCCN1C(=O)C(NC(=O)C2CCc3ccccc3C2)c2ccccc21 (stereo not given)
64 | 129 to 130 | CCOC(=O)c1cccc(-c2ccc3c(n2)C(Oc2ccc(Cl)cc2Cl)CC3)c1 (stereo not given)
65 | 60 to 62 | CC(C)OCC(C)Oc1ccc(COc2cnn(C(C)(C)C)c(=O)c2Cl)cc1 (stereo not given)
66 | 265 | Fc1ccc(-c2nc(SCSc3nc(-c4ccc(F)cc4)c(-c4ccc(F)cc4)[nH]3)[nH]c2-c2ccc(F)cc2)cc1
67 | 110 to 112 | C=Cc1cnc(NC(=O)C(C)C)nc1
68 | 78 to 81 | COc1ccc(CNS(C)(=O)=O)cc1OC
69 | 151 to 152 | O=S(=O)(Nc1ccccc1Oc1ccc2ncccc2c1)c1ccc(Cl)cc1

Row | melting point [°C] | Compound
70 | 247 to 249 | N#Cc1[nH]c2ccc(C(O)(C(F)(F)F)C(F)(F)F)cc2c1-c1ccccc1
71 | 175 to 178 | Cc1ccc(S(=O)(=O)OCC2Cc3c[nH]c4cccc(c34)C(=O)N2)cc1 (stereo not given)
72 | 167 to 168 | CCN1CCCC1CNC(=O)c1cc(NS(=O)(=O)NC(C)(C)C)c(C)cc1OC (stereo not given)
73 | 76 | COC(=O)CCC(=O)OC1CC(C)(C)N(O)C(C)(C)C1
74 | 168 to 170 | CCOC(=O)c1nc(-c2ccc(OCc3ccccc3)cc2)[nH]c1-c1ccc(C)cc1
75 | 137 to 138 | COC(=O)c1ccc(-c2nn(Cc3ccccc3)c3ccccc23)o1
76 | 116 to 117 | Cc1cc(SC(C)C)c(NC(=O)CCCSc2nc3ccccc3s2)c(SC(C)C)n1
77 | 163 to 168 | COc1ccc(NC(=O)c2ccc(C3(C#N)CCCC3)cc2)cc1
78 | 210 to 211 | Cc1cc(Cn2nnn(-c3ccc(C(F)(F)F)cc3)c2=O)ccc1N
79 | 79 to 80 | COC(=O)COc1ccc(SCc2cc(-c3ccc(Cl)cc3)on2)cc1C
80 | 112 to 113 | Cc1nc2ccccn2c(=O)c1CCN1CCN(c2cccc(Cl)c2)CC1
81 | 80 to 84 | COC1=C(OC)C(=O)C2=C(CC(CCCCCCCCN3CCN(c4ccccn4)CC3)C2)C1=O
82 | 87 to 88 | O=C(Cl)N1CC(Oc2cccc(Br)c2)C1
83 | 173 to 175 | CC(C)C[C@@H](CC=O)NC(=O)[C@H](Cc1c[nH]cn1)NC(=O)[C@H](Cc1ccccc1)NC(=O)OCc1ccccc1
84 | 107 to 109 | CN(CCc1cn(C(=O)OCc2ccccc2)c2ccc([N+](=O)[O-])cc12)C(=O)C(F)(F)F
85 | 162 | COc1cc(O)c(C(=O)C=Cc2ccc3c(c2)OCO3)c(OC)c1
86 | 131 to 132 | CC(C)(C)OC(=O)Nc1ncc(-c2ccc(C#Cc3ccccc3)cc2)n1C(=O)OC(C)(C)C
87 | 260 | CCCCc1c[nH]c2ccc(CO)cc2c1=O
88 | 63 to 64 | CC(OC(=O)NCC1(CC(=O)O)CCCCC1)OC(=O)C(C)C (stereo not given)
89 | 56 | CC(C=[N+]([O-])C(C)(C)C)c1ccccc1 (stereo not given)
90 | 120 to 121 | NNc1cc(-c2ccccn2)ccn1
91 | 79 to 81 | Cc1ccc(Oc2ccc(OC(=O)N3CCC(C)CC3)cc2)cc1
92 | 105 | COC(=O)C=CC=CCS(=O)(=O)c1ccccc1

Row | Compound | melting point [°C]
93 | CC1(C)OC(=O)N2CCNCC21 (stereo not given) | 92 to 93
94 | C[C@H]1[C@@H](O)[C@H](Cc2ccccc2)C(=O)N1c1ccc(C#N)c(Cl)c1 | 99 to 101
95 | COC1N=C(c2ccccc2)c2cc(Cl)ccc2-n2nc(C(N)=O)nc21 (stereo not given) | 264 to 267
96 | CCCc1cc2c(cc1O)C(C)(C)CCC2(C)C | 96 to 97
97 | COc1cc2c(cc1OC)N(C(=O)c1ccc(-c3ccccc3C(F)(F)F)c(C)c1)Cc1ccc(C(=O)N3CCC(=O)CC3)n1C2 | 132 to 134
98 | COC(=O)/C=C/c1ccc(CC(C)NCC(O)c2cccc(Br)c2)cc1 (stereo not given) | 105 to 111
99 | Cc1ncc(C(=O)N2CCC(=O)CC2)c(C)n1 | 116
100 | COc1cc2c3c(c1O)-c1ccc(Cl)cc1CC3N(C)CC2 (stereo not given) | 155 to 157
